pIC50: −log10 of the molar value. In brackets after ≈: the same amount, converted by molar mass. Like-named read-outs stand apart in the source and are kept apart here.
Assays:
S. epidermidis YycG = system: S. epidermidis YycG; design: method as in PMID 24737057; conditions: read-out: IC50 S. epidermidis YycG (WalK) autophosphorylation; cited from earlier work
Gram positive strains = conditions: cited from earlier work
Streptococcus pneumoniae = test: Antibacterial susceptibility testing (MIC), S. pneumoniae; format: cell-based; conditions: strain 49619
Protocol: (§1) Bacterial strains used in this study for antibacterial susceptibility testing (Table S5) were propagated using standard microbiological procedures. Minimal inhibitory concentrations (MICs) were determined following a standard double-dilution method. MICs were recorded as the lowest concentration of the compound where no visible growth was observed. After plating the dilutions around the MIC or growing them in fresh MH media, minimal bactericidal concentration (MBC) was recorded as the lowest concentration of the compound at which no colonies were formed or no growth was observed, respectively. For S. pneumoniae MICs were determined by adapting the standard double-dilution method to anaerobic conditions and of this microorganism (use of Todd Hewitt Yeast extract with 200 U/mL of catalase and continuous monitoring of growth).

Acinetobacter baumannii = test: Antibacterial susceptibility testing (MIC), A. baumannii; format: cell-based
Protocol: as §1

[1] = system: Stenotrophomonas maltophilia; test: Antibacterial susceptibility testing (MIC), S. maltophilia; format: cell-based
Protocol: as §1

Staphylococcus aureus = test: Antibacterial susceptibility testing (MIC/MBC), S. aureus; format: cell-based; conditions: Staphylococcus aureus; for MBC: DSM20231, strain DSM 20231, read-out: MBC S. aureus DSM 20231
Protocol: (§2) Minimal inhibitory concentrations (MICs) were determined following a standard double-dilution method. […] For S. pneumoniae MICs were determined by adapting the standard double-dilution method to anaerobic conditions and of this microorganism (use of Todd Hewitt Yeast extract with 200 U/mL of catalase and continuous monitoring of growth).

Pseudomonas aeruginosa = test: Antibacterial susceptibility testing (MIC), P. aeruginosa; format: cell-based; conditions: Pseudomonas aeruginosa, ATCC27853; strain ATCC 27853
Protocol: as §1

[2] = Solubility in kinase buffer; format: physicochemical; conditions: kinase buffer with 10% DMSO, pH 8.5, aqueous with cosolvent or surfactant or cyclodextrin, kinetic from dmso stock; kinase buffer in the presence of 10% DMSO; read-out: concentration above which not soluble / reduced solubility in kinase buffer
Escherichia coli = test: Antibacterial susceptibility testing (MIC/MBC), E. coli; format: cell-based; conditions: for MIC / MBC: Escherichia coli; for MBC: read-out: MBC E. coli CFT 073
Protocol: as §2

Hemolysis assay = format: cell-based; conditions: human
Protocol: Hemolytic activity against human erythrocytes taken from a healthy donor was measured as previously described. The hemolysis experiments were carried out in accordance with the guidelines of the United Arab Emirates University (UAEU) Research Ethics Review Board. All experimental protocols were approved by the Research Ethics Review Board of UAEU and informed consent was obtained from all donors.

[3] = system: Staphylococcus epidermidis; test: Antibacterial susceptibility testing (MIC/MBC), S. epidermidis; format: cell-based; conditions: Staphylococcus epidermidis; for MBC: DSM20044, strain DSM 20044
Protocol: as §2

Streptococcus suis = test: Antibacterial susceptibility testing (MIC), S. suis; format: cell-based; conditions: for MIC: Streptococcus suis, read-out: MIC Streptococcus suis 3881/S10, strain 3881/S10
Protocol: as §1

S. pneumoniae WalK = biological target: T1, S. pneumoniae WalK (Streptococcus pneumoniae, UniProt Q8DPL8); test: In vitro autophosphorylation kinase assay with γ-32P-ATP, WalK; format: biochemical; conditions: autophosphorylation, one time point (30 sec), 10% DMSO; read-out: IC50 WalK
T1 construct: WalK (amino acids from 208 to 449); N-terminal His6-3C site of vector pOPINF (own knowledge of the vector); made in house; host or cells: E. coli RIL
T1 sequence (Q8DPL8 208-449): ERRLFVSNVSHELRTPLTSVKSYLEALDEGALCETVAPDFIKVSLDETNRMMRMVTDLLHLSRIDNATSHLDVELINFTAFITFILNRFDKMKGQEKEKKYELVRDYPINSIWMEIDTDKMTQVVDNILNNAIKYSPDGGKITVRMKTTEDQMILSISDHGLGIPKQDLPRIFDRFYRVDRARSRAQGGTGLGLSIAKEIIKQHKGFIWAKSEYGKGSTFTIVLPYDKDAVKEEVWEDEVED
In short: (§3)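 Histidine kinase (0.12 mg/ml, ≈4 μM) incubated with up to 20 mM fragment in 50 mM Tris HCl pH 8.5, 50 mM KCl, 5 mM MgCl2, 0.5 mM EDTA, 0.1 mM DTT; started with 0.1 μCi/μl γ-32P-ATP (0.03–0.06 μM ATP final). Phosphoprotein quantified by SDS-PAGE and phosphor-imaging, curve-fitted; DMSO controls.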

Klebsiella pneumoniae = test: Antibacterial susceptibility testing (MIC), K. pneumoniae; format: cell-based; conditions: for MIC: Klebsiella pneumoniae, ATCC700603, strain ATCC 700603
Protocol: as §1

E. coli PhoR (PhoR^E) = biological target: T2, E. coli PhoR (PhoR^E) (Escherichia coli, UniProt P08400); test: In vitro autophosphorylation kinase assay with γ-32P-ATP, PhoR^E; format: biochemical; conditions: for pIC50: autophosphorylation, one time point (30 sec), 10% DMSO, read-out: IC50 PhoR^E
T2 construct: The catalytic portion (DHp and CA domain) of E. coli PhoR (PhoR^E); made in house; host or cells: E. coli RIL
T2 sequence (P08400 210-425): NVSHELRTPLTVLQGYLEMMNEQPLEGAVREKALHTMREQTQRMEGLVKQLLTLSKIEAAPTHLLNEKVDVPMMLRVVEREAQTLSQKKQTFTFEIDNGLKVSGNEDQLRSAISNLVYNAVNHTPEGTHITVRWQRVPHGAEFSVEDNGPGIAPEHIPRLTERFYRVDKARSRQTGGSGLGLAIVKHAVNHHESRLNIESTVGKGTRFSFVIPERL
In short: as §3

[4] = MDR clinical isolate NM8, read-out: MIC A. baumannii NM8
[5] = MDR clinical isolate NM35, read-out: MIC A. baumannii NM35
[6] = MDR clinical isolate NM75, read-out: MIC A. baumannii NM75
[7] = MDR clinical isolate NM109, read-out: MIC A. baumannii NM109
[8] = MDR clinical isolate NM124, read-out: MIC A. baumannii NM124
[9] = summary over strains, read-out: MICs for A. baumannii strains
[10] = clinical isolate B32/1, read-out: MIC S. maltophilia B32/1
[11] = ATCC reference strain 25293, read-out: MIC S. aureus 25293
[12] = MRSA clinical isolate 127/08, read-out: MIC S. aureus 127/08
[13] = MRSA clinical isolate 145/08, read-out: MIC S. aureus 145/08
[14] = MRSA clinical isolate 274/08, read-out: MIC S. aureus 274/08
[15] = MRSA, MRSA clinical isolate S908, read-out: MIC S. aureus S908
[16] = MRSA, MRSA clinical isolate T4/6, read-out: MIC S. aureus T4/6
[17] = MRSA, MRSA clinical isolate V4180, read-out: MIC S. aureus V4180
[18] = ATCC25276, strain ATCC 25276, read-out: MIC E. coli ATCC 25276
[19] = strain CFT 073, read-out: MIC E. coli CFT 073
[20] = strain RP62A (biofilm producer), read-out: MIC S. epidermidis RP62A

| SMILES | MIC (Streptococcus pneumoniae) [µg/mL] | MIC (Acinetobacter baumannii; [4]) [µg/mL] | MIC (Acinetobacter baumannii; [5]) [µg/mL] | MIC (Acinetobacter baumannii; [6]) [µg/mL] | MIC (Acinetobacter baumannii; [7]) [µg/mL] | MIC (Acinetobacter baumannii; [8]) [µg/mL] | MIC (Acinetobacter baumannii; [9]) [µg/mL] | MIC [1, 10] [µg/mL] | MIC (Staphylococcus aureus; [11]) [µg/mL] | MBC (Staphylococcus aureus) [µg/mL] | MIC (Staphylococcus aureus; [12]) [µg/mL] | MIC (Staphylococcus aureus; [13]) [µg/mL] | MIC (Staphylococcus aureus; [14]) [µg/mL] | MIC (Staphylococcus aureus; [15]) [µg/mL] | MIC (Staphylococcus aureus; [16]) [µg/mL] | MIC (Staphylococcus aureus; [17]) [µg/mL] | MIC (Pseudomonas aeruginosa) [µg/mL] | MIC (Escherichia coli; [18]) [µg/mL] | MBC (Escherichia coli; strain CFT 073) [µg/mL] | MIC (Escherichia coli; [19]) [µg/mL] | other results |
| --- | --- | --- | --- | --- | --- | --- | --- | --- | --- | --- | --- | --- | --- | --- | --- | --- | --- | --- | --- | --- | --- |
| O=C(O)c1ccc(-c2ccc(/C=C3\S/C(=N\c4ccccc4)N(c4ccc(F)cc4)C3=O)s2)cc1 [H2-81] |  |  |  |  |  |  |  |  |  |  |  |  |  |  |  |  |  |  |  |  | pIC50 (S. epidermidis YycG): 4.62; MIC Gram positive (Gram positive strains): ≥ 0.75 µg/mL |
| Nc1nccc(Nc2ccc(Br)cc2)n1 [F1.8] | 128 (≈ 483 µM) | 125 (≈ 471 µM) | 125 (≈ 471 µM) | 250 (≈ 943 µM) | 125 (≈ 471 µM) | 125 (≈ 471 µM) | 125 to 250 (≈ 471 to 943 µM) | > 500 | 250 (≈ 943 µM) | 250 (≈ 943 µM) | 250 (≈ 943 µM) | 250 (≈ 943 µM) | 250 (≈ 943 µM) | 250 (≈ 943 µM) | 250 (≈ 943 µM) | 250 (≈ 943 µM) | 500 (≈ 1890 µM) | 125 to 250 (≈ 471 to 943 µM) | 500 (≈ 1890 µM) | < 250 | MIC (Staphylococcus aureus; MRSA, summary over strains, read-out: MICs for the S. aureus reference strains and the MRSA strains): 125 to 250 µg/mL (≈ 471 to 943 µM); solubility [2]: ≤ 1000 µM; MIC (Escherichia coli; summary over E. coli strains, read-out: antibacterial effects (MIC) against E. coli): ≥ 250 µg/mL; MIC E. coli ATCC 25276 (Escherichia coli; strain ATCC 25276): 250 µg/mL (≈ 943 µM); MIC E. coli CFT 073 (Escherichia coli; strain CFT 073): 250 µg/mL (≈ 943 µM); HC50 (Hemolysis assay): > 500 µg/mL; MBC [3]: 125 µg/mL (≈ 471 µM); MIC ([3]; clinical isolate T7/3, read-out: MIC S. epidermidis T7/3): 31 µg/mL (≈ 117 µM); MIC ([3]; clinical isolate T37/8, read-out: MIC S. epidermidis T37/8): 500 µg/mL (≈ 1890 µM); MIC ([3]; clinical isolate T6119, read-out: MIC S. epidermidis T6119): 250 µg/mL (≈ 943 µM); MIC [3, 20]: 500 µg/mL (≈ 1890 µM); MIC ([3]; strain RP62A/1 (non-biofilm producer), read-out: MIC S. epidermidis RP62A/1): 250 µg/mL (≈ 943 µM); MIC ([3]; summary over strains, read-out: MICs for the S. epidermidis strains): 31 to 500 µg/mL (≈ 117 to 1890 µM); MIC (Streptococcus suis): 250 µg/mL (≈ 943 µM); pIC50 (S. pneumoniae WalK): < 2.70; MIC (Klebsiella pneumoniae): 125 to 250 µg/mL (≈ 471 to 943 µM); MIC K. pneumoniae ATCC700603 (Klebsiella pneumoniae; strain ATCC 700603): 250 µg/mL (≈ 943 µM); inhibition at 2000 µM (E. coli PhoR (PhoR^E); 2 mM, 30 sec, compared to negative control): > 50%; pIC50 (E. coli PhoR (PhoR^E)): ≥ 3.00 |
| CC(C)NCC(O)COc1cccc2[nH]c3ccccc3c12 (stereo not shown) [F2.4] | 64 (≈ 214 µM) | 500 (≈ 1680 µM) | > 500 | > 500 | 500 (≈ 1680 µM) | 500 (≈ 1680 µM) | 500 (≈ 1680 µM) | 500 (≈ 1680 µM) | 125 (≈ 419 µM) | 250 (≈ 838 µM) | 500 (≈ 1680 µM) | 250 (≈ 838 µM) | 500 (≈ 1680 µM) | 500 (≈ 1680 µM) | > 500 | 500 (≈ 1680 µM) | > 500 | 500 (≈ 1680 µM) | 500 (≈ 1680 µM) | 500 (≈ 1680 µM) | MIC ([1]; clinical isolate B5/5, read-out: MIC S. maltophilia B5/5): > 500 µg/mL; MIC ([1]; clinical isolate B6/2, read-out: MIC S. maltophilia B6/2): 500 µg/mL (≈ 1680 µM); MIC ([1]; summary over strains, read-out: MICs for S. maltophilia strains): 500 µg/mL (≈ 1680 µM); MIC (Staphylococcus aureus; MRSA, summary over strains, read-out: MICs for the MRSA strains and S. aureus 25293): 125 to 500 µg/mL (≈ 419 to 1680 µM); HC50 (Hemolysis assay): > 500 µg/mL; MBC [3]: 500 µg/mL (≈ 1680 µM); MIC [3, 20]: > 500 µg/mL; MIC (Streptococcus suis): 125 µg/mL (≈ 419 µM); MIC Streptococcus suis 3881/S10 (Streptococcus suis; strain 3881/S10): 250 µg/mL (≈ 838 µM); pIC50 (S. pneumoniae WalK): < 2.70; MIC (Klebsiella pneumoniae): > 500 µg/mL; pIC50 (E. coli PhoR (PhoR^E)): < 2.70 |
